Assay results: patent US10568978B2, “Radiopharmaceutical synthesis methods” (Lantheus Medical Imaging, Inc., priority 2012, dated 2020)
Each block holds one molecule with its values, some of them ahead of it.

Columns and labels:
Format in all cases: physicochemical
[1] = Filter retention: percent recovery of analyte after syringe-pump filtration, HPLC at 295 nm pre- and post-filtration
Method: In particular, compositions comprising BMS-747158-01 and BMS-747159-01 were prepared in water comprising absolute ethanol (4 wt. %) and sodium ascorbate (50 mg/mL; 5 wt. %) then loaded into plastic syringes (Norm-Ject™; 12 mL) and placed onto an automated syringe pump. Select filters were then placed on each respective syringe and the composition pumped through the units in a controlled fashion. In all cases, gravimetric analysis of the solution transfer process was performed in order to monitor efficiency of the liquid handling steps. Subsequent quantitative analysis of filter retention was then performed following HPLC determination of the absolute concentration of each analyte in both the pre- and post-filtered solutions; HPLC analysis with detection at 295 nm was performed according to established methods. The following equation was then utilized to determine the percent recovery for each analyte:
[formula] Note a higher value of percent recovery equates to lower retention of the respective analyte, and thus improved overall filter performance. The analysis described herein captures both the mass of the compound that is retained as well as the volume of liquid that is retained. As no normalization is performed, the analysis thus allows for direct comparison of relevant filter parameters.
The compositions comprising BMS-747158-01 and BMS-747159-01 were passed through a variety of filters, as described herein. Individual filter parameters varied in terms of both membrane and housing composition, overall filter diameter, and in some instances the applied coating (Table 1). Further, effects of both individual analyte concentration as well as the overall rate of filtration were also evaluated.

[2] = Measured log D (relative lipophilicity of analytes); settings: relative to BMS-747158-01
[3] = Retention of flurpiridaz F 18 on PVDF, PTFE and RC filters with synthesis modules; settings: Siemens Explora GN/LC (manual) and GE TracerLab MX (automated) modules; FIG. 9
Description: This was particularly surprising since structurally and chemically, the PVDF filter is more similar to the PTFE filter than the RC filter. Further, the data substantiate that use of the RC filter membrane improves recovery of ^18F-bearing radiopharmaceuticals across multiple synthesis module platforms.

retention by filter housing composition ([1]; HDPE and PP housings (no aromatic rings), filters of identical diameter, FIG. 5): retained lower amounts
retention on PTFE and RC membranes in comparison to PVDF ([1]; PTFE and RC filter membranes vs PVDF, FIG. 8): retained lower amounts
retention by membrane composition ([1]; PVDF membrane vs other membranes, filters of identical diameter, FIG. 4): retains the greatest amount
retention after the initial filtration ([1]; Pall PVDF filter, initial filtration, FIG. 6): retained large amounts
SMILES: CC(C)(C)n1ncc(OCc2ccc(COCCF)cc2)c(Cl)c1=O [BMS-747158-01]

lipophilicity (measured log D, relative) [2]: lower inherent lipophilicity
SMILES: CC(C)(C)n1ncc(OCc2ccc(COCCO)cc2)c(Cl)c1=O [BMS-747159-01]

retention on PTFE and RC filters vs PVDF filter [3]: retain far less
SMILES: CC(C)(C)n1ncc(OCc2ccc(COCC[18F])cc2)c(Cl)c1=O [flurpiridaz F 18]
